# Data taken from patent publication US12319752B2, “Heparin-binding cationic peptide self-assembling peptide amphiphiles useful against drug-resistant bacteria” (priority 2016, dated 2025).
# Residues, ends and D or L forms follow the SMILES beside them. *: point of attachment. Palmitoyl = CCCCCCCCCCCCCCCC(=O)*
# Experiments:
# MDR E. coli [1] = type: cell-based, multidrug-resistant E. coli (MDR E. coli, ATCC #BAA-2471); conditions: 24 h
# Method: This assay was performed to investigate the inhibitory effects of each peptide against Gram-positive Staphylococcus aureus (S. aureus, ATCC #25923) and methicillin-resistant S. aureus (MRSA, ATCC #43300), as well as Gram-negative Escherichia coli (E. coli, ATCC #25922), and multidrug-resistant E. coli (MDR E. coli, ATCC #BAA-2471). In all experiments, solutions of each peptide at the concentrations from 20 μM to 100 μM in 3% Tryptic Soy Broth (TSB) media were freshly prepared. A single colony of bacteria was isolated from a stock agar plate and cultured overnight in 4 mL of 3% TSB on a shaking incubator set at 200 rpm and 37° C. […] The bacteria were incubated inside a spectrophotometer (Spectra-Max Paradigm, Molecular Devices, Sunnyvale, CA) at 37° C. under static conditions for 20 h, and the bacterial growth curves were measured in terms of turbidity at OD562 every 2 minutes. The normalized OD562 values of samples were calculated by subtracting the […].
# The minimum inhibitory concentration (MIC) of ACA-PA was tested against drug-resistant bacteria and compared with conventional penicillin-streptomycin (10,000 U/mL, Thermo Fisher Scientific, Waltham, MA, USA) as well. […] The OD562 was measured at the end of treatment. […]
# MDR E. coli [2] = assay: Bacterial growth inhibition (growth curves, OD562, 20 h); type: cell-based, multidrug-resistant E. coli (MDR E. coli, ATCC #BAA-2471)
# Method: (§1) Gram-positive (S. aureus and MRSA) and Gram-negative (E. coli and MDR E. coli) bacteria were incubated with peptide concentrations ranging from 20 to 100 μM, and time-lapsed bacterial growth was monitored for 20 hours by determining the optical density at 562 nm (O.D. 562 nm). […] At the highest concentration tested (100 μM), the time to exponential growth phase of S. aurues was delayed by about 18 h (FIG. 5B), and was prolonged by almost 13 h for MRSA (FIG. 5A), while bacteria incubated without ACA-PA entered the exponential growth phase within 4 h. Gram-positive bacteria were also susceptible to the ACA-PA even below their CMC.
# (§2) The MIC values of ACA-PA towards drug-resistant bacteria were determined after 24 h of incubation (Table 2).
# (§3) This assay was performed to investigate the inhibitory effects of each peptide against Gram-positive Staphylococcus aureus (S. aureus, ATCC #25923) and methicillin-resistant S. aureus (MRSA, ATCC #43300), as well as Gram-negative Escherichia coli (E. coli, ATCC #25922), and multidrug-resistant E. coli (MDR E. coli, ATCC #BAA-2471). In all experiments, solutions of each peptide at the concentrations from 20 μM to 100 μM in 3% Tryptic Soy Broth (TSB) media were freshly prepared. A single colony of bacteria was isolated from a stock agar plate and cultured overnight in 4 mL of 3% TSB on a shaking incubator set at 200 rpm and 37° C. The bacteria culture was adjusted to an optical density at 562 nm (OD562) to about 0.52 (10^9 cells/mL), and the resulting bacteria suspension was subsequently diluted to about 10^6 colony forming units (CFU) per mL in each sample. The control samples were bacteria incubated in TSB media without peptides. The bacteria were incubated inside a spectrophotometer (Spectra-Max Paradigm, Molecular Devices, Sunnyvale, CA) at 37° C. under static conditions for 20 h, and the bacterial growth curves were measured in terms of turbidity at OD562 every 2 minutes. The normalized OD562 values of samples were calculated by subtracting the […].
# S. aureus = assay: as above; type: cell-based, Staphylococcus aureus (ATCC #25923)
# Method: as §1, §3
# MRSA [3] = assay: as above; type: cell-based, methicillin-resistant S. aureus (MRSA, ATCC #43300)
# Method: as §1, §2, §3
# MRSA [4] = assay: Bacterial membrane disruption by TEM of ultrathin sections; type: cell-based, methicillin-resistant S. aureus (MRSA); conditions: 4 h
# Method: TEM was used to reveal the damage in bacterial cell envelopes caused by ACA-PA treatment. Drug-resistant bacterial strains (MRSA and MDR E. coli) were exposed to ACA-PA at concentrations below (40 μM) and above (80 μM) the CMC, and ultrathin sections of the bacterial cultures were visualized by TEM.
# The ACA-PA at a concentration lower than CMC seemed to only influenced the outer bacteria membrane, but were inadequate to disrupt the inner bacteria membranes.
# Bacterial membrane disruption was observed from the ultrathin sectioned sample using TEM. […] After treatment with 80 μM ACA nanorods, bacterial cell membranes were severely damaged with complete cytoplasm leakage. […] On the damaged membranes, blisters appeared to originate from the pores. This explains the reason for the different antibacterial activity of ACA-PA on Gram-negative bacteria compared to the concentration-dependent toxicity on Gram-positive bacteria. The cell envelope of Gram-positive has a cytoplasmic membrane surrounded by a thick peptidoglycan layer with lipoteichoic acid. The antibacterial ACA-PA could penetrate the Gram-positive bacterial membrane by charge and hydrophobicity, although the PA were in a dispersed, non-assembled form. However, such dispersed PA were not able to penetrate the outer membrane of Gram-negative bacteria. […]
smiles,measurement,setting,value
"CCCCCCCCCCCCCCCC(=O)N[C@H](C(=O)N[C@H](C(=O)N[C@H](C(=O)N[C@H](C(=O)N[C@@H](CCCCN)C(=O)N[C@@H](CCCCN)C(=O)N[C@@H](CCCCN)C(=O)N[C@@H](CCCCN)C(=O)NCC(=O)N[C@@H](C)C(=O)N[C@@H](CCCCN)C(=O)N[C@@H](CCCCN)C(=O)N[C@@H](C)C(=O)N[C@@H](CCCNC(=N)N)C(=O)N[C@@H](C)C(=O)N[C@@H](C)C(=O)N[C@@H](CCCCN)C(=O)N[C@@H](CCCCN)C(=O)N[C@@H](C)C(=O)N[C@@H](CCCNC(=N)N)C(=O)N[C@@H](C)C(=O)O)C(C)C)C(C)C)C(C)C)C(C)C [ACA-PA, C16-V4K4G(AKKARA)2 (SEQ ID NO: 7)] (Palmitoyl-VVVVKKKKGAKKARAAKKARA-OH; N-terminus and C-terminus assumed)",Minimum inhibitory concentration (MIC),MDR E. coli [1],400 µg/mL
same,bacterial growth inhibition,"MDR E. coli [2]; 20 to 100 μM, 20 h",remarkably inhibited the proliferation
same,bacterial proliferation,MDR E. coli [2]; concentrations higher than the CMC (60 μM to 100 μM),significantly suppressed
same,bacterial growth inhibition,MDR E. coli [2]; concentrations lower than the CMC,did not significantly inhibit bacterial growth
same,bacterial growth,MDR E. coli [2]; over 80 μM,no bacteria growth was observed
same,delay of time to exponential growth phase,S. aureus; 100 μM,about 18 h
same,bacterial growth inhibition,"S. aureus; 20 to 100 μM, 20 h",remarkably inhibited the proliferation
same,susceptibility of bacterial growth,S. aureus; below the CMC,susceptible
same,prolongation of time to exponential growth phase,MRSA [3]; 100 μM,~13 h
same,bacterial growth inhibition,"MRSA [3]; 20 to 100 μM, 20 h",remarkably inhibited the proliferation
same,susceptibility of bacterial growth,MRSA [3]; below the CMC,susceptible
same,bacterial membrane disruption (TEM),MRSA [4]; 40 μM,partially damaged
same,bacterial membrane disruption (TEM),MRSA [4]; 80 μM,localized disruption on the cell membrane and complete leakage of the cytoplasm
